In patent US10610517B2, “Compositions and methods for treating neoplastic diseases” (Celgene International II Sàrl, priority 2004, dated 2020):
Like-named read-outs stand apart in the source and are kept apart here.

Key:
[1] = tested on: Bax; assay: Immunoblot of Bax in mitochondrial protein extracts; assay type: cell-based, human; conditions: MM.1S cells; FIG. 12E
Experimental: Immunoblot analysis was performed using antibodies to cytochrome-c, Smac, Caspase-8, -9, or -3 (Cell Signaling, Beverly, Mass.), tubulin (Sigma, St. Louis, Mo.), PARP, Hsp60, or Bax (BD Bioscience Pharmingen, San Diego, Calif.). Blots were developed by enhanced chemiluminesence (ECL; Amersham, Arlington Heights, Ill.).
Previous studies have established that Bax induces mitochondrial apoptotic pathway. See Wei, M. C., Zong, W. X., Cheng, E. H., Lindsten, T., Panoutsakopoulou, V., Ross, A. J., Roth, K. A., MacGregor, G. R., Thompson, C. B. & Korsmeyer, S. J. (2001) Science 292, 727-30 and Lei, K., Nimnual, A., Zong, W. X., Kennedy, N. J., Flavell, R. A., Thompson, C. […] Thus, whether MM cell apoptosis induced by the compound of formula (II) (X=Cl) correlates with alterations in Bax was evaluated. […] Blots are representatives of three independent experiments.

[2] = tested on: RPMI 8226 MM cells; assay type: in vivo, beige-nude-xid (BNX) mice
[3] = 0.25 or 0.5 mg/kg orally twice a week

SMILES: CC12OC(=O)C1(C(O)C1C=CCCC1)NC(=O)C2CCCl (stereo not shown) [compound of formula (II) (X=Cl)]
- Bax levels in mitochondria [1]: little, if any increase in Bax levels in mitochondria
- MM tumor growth [2, 3]: significantly inhibits MM tumor growth
- survival [2, 3]: prolongs survival
- neurological behavioral changes ([2]; after 12 weeks of treatment, oral): no neurological behavioral changes were observed
- treated mice with no recurrence of tumor ([2]; day 300, oral, FIG. 10C): 57%
- tumor progression ([2]; i.v. twice weekly (compound 0.15 mg/kg; Bortezomib 1.0 mg/kg), p<0.01): significantly reduced the tumor progression
- survival ([2]; i.v. twice weekly (compound 0.15 mg/kg; Bortezomib 1.0 mg/kg), p=0.0137): prolonged survival
- tolerability and body weight ([2]; oral 0.25 or 0.5 mg/kg, FIG. 10D): well tolerated by mice, without evidence of weight loss
- treated mice with complete regression of tumors ([2]; oral, twice a week): 70%
- histologic analysis of the inoculation sites ([2]; versus vehicle, FIG. 10E): disappearance of plasma cells
